These results are taken from patent US20240368664A1, “LIVE YEAST BIOSENSORS AND METHODS OF USE THEREOF” (priority 2021, published 2024).

One assay deals with CaSte2. The conditions noted are these: for Hill Slope: CaSte2 (yTC384), no protease, Hill function best-fit ± standard error; for response of CaSte2 / EC50 compared to the native CaPep: alanine scan, system without CaBar1 (yTC384).
Assay [1] has as its system CaSte2 with protease CaBar1. The conditions noted are these: CaSte2 + CaBar1 (yBB02); Hill function best-fit ± standard error.
The target of a further assay is ScSte2 (Saccharomyces cerevisiae, UniProt D6VTK4). Put plainly: ScSte2 biosensor dose-response, ymTurquoise2 readout, no protease (incl. ScPep alanine scan, yTC391). Format: cell-based. As to conditions: Hill function best-fit ± standard error.
ScSte2, sequence (D6VTK4 whole entry): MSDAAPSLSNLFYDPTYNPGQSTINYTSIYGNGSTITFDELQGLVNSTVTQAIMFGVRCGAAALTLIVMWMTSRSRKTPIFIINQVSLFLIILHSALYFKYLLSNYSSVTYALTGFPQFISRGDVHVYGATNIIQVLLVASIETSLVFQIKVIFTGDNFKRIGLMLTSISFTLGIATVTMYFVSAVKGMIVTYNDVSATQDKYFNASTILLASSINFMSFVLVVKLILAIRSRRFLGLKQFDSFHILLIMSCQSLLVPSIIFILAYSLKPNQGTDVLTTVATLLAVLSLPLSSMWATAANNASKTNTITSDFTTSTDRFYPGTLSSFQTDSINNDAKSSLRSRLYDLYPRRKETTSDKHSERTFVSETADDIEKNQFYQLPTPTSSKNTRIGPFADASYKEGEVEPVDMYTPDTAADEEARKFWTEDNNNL
Assay [2] has as its target ScSte2 with protease ScBar1 (Saccharomyces cerevisiae, UniProt D6VTK4). Format: cell-based.
The target of assay [3] is T1, Candida albicans pheromone GPCR CaSte2 (Candida albicans).
T1 sequence: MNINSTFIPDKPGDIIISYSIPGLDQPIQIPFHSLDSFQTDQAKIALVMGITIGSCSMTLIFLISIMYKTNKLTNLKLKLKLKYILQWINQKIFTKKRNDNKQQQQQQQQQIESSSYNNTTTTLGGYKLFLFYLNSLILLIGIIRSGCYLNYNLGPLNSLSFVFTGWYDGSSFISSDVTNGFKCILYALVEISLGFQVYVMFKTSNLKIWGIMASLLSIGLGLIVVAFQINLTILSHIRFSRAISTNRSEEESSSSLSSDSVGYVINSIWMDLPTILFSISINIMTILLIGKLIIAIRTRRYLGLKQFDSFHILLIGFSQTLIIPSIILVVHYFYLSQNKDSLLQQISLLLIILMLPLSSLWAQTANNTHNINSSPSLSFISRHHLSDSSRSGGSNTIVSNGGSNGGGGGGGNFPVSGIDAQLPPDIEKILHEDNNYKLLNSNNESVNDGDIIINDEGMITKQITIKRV
Put plainly: cell-based or functional assay.

Assay [4] has as its target T2, Saccharomyces cerevisiae pheromone GPCR ScSte2 (Saccharomyces cerevisiae) (UniProt D6VTK4).
T2 sequence: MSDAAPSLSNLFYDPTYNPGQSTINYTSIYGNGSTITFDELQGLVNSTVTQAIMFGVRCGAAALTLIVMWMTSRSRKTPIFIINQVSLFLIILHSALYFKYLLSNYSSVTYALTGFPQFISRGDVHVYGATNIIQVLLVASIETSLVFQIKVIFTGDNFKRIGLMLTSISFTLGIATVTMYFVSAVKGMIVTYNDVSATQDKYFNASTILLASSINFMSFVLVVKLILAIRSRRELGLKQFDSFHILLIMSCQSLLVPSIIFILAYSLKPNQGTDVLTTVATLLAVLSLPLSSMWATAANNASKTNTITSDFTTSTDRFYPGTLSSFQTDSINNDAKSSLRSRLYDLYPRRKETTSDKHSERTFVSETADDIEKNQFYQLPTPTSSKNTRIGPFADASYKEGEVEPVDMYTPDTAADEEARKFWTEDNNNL
The experiment in a line: cell-based or functional assay.

Assay [5] deals with T3, A. fumigatus pheromone GPCR (AfuSte2) (Aspergillus fumigatus).
T3 sequence: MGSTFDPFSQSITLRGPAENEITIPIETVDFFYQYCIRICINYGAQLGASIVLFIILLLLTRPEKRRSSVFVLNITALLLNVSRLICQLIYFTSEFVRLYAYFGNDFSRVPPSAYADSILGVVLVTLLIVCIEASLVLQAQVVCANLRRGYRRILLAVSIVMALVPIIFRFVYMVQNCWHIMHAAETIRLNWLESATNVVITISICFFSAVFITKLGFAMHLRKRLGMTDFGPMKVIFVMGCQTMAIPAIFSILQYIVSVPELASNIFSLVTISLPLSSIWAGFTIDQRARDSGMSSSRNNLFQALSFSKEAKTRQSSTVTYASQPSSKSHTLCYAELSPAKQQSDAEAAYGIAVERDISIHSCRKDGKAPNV
The experiment in a line: cell-based or functional assay.

Several values for one entry are separate records, joined by “and”; a condition that tells them apart may be missing. Equal entries are not always repeated. No end group written: not given here.

ScSte2 with protease ScBar1, sequence (D6VTK4 whole entry): as the sequence (D6VTK4 whole entry) above

AFRLTNFGYFEPG [CaPep1A]: the “Hill Slope” value with CaSte2 is on record as 3.0 ± 0.4; in assay [1], 1.1 ± 0.22.

As for AHWLQLKPGQPMY [ScPep1A], at ScSte2, the “Hill Slope” value came to 3.4 ± 0.8. In assay [2], the Bottom is given as −3.1 ± 5.8 A.U, the “Hill Slope” value was determined as 0.76 ± 0.06, the LogEC50 was −5.9 ± 0.1 M and the Top is 350 ± 10 A.U.

For C. albicans pheromone peptide (CaPep), in assay [3], the EC50, lycopene readout, strains preincubated, +CaBar1 was determined as 4 µM; the EC50, ymTurquoise2, biosensor with CaBar1 (pRPL18B) was 90 nM; the EC50, ymTurquoise2, biosensor without protease worked out at 7 nM; the LogEC50 was -7.2 log M. The Top in assay [3] was 460 A.U. and 420 A.U.

As for CaPep1A (peptide), the Top in assay [3] was 460 A.U. and 410 A.U.

As for CaPep2A13A (peptide), in assay [3], the EC50, ymTurquoise2, strain with the protease CaBar1 was 70 nM; the EC50, ymTurquoise2, strain without the protease came out at 50 nM; the LogEC50 was -7 log M and -6.5 log M; the Top was 790 A.U. and 680 A.U.

Substance CaPep3A (peptide) registered a Top in assay [3] of 460 A.U.

Take CaPep4A (peptide): in assay [3], the LogEC50 is -6.5 log M and -6.1 log M; the Top is 460 A.U. and 410 A.U.

With CaPep5A (peptide), in assay [3], the LogEC50 is -5.2 log M and -4.9 log M; the Top was 15 A.U. and 13 A.U.

Turning to CaPep6A (peptide), in assay [3], the LogEC50 was -6.2 log M and -5.9 log M; the Top was 570 A.U. and 450 A.U.

Take CaPep7A (peptide): in assay [3], the LogEC50 was -5.5 log M and -5.6 log M; the Top was 34 A.U. and 17 A.U.

Regarding CaPep8A (peptide), the Top in assay [3] was 640 A.U. and 460 A.U.

CaPep9A (peptide): the Top in assay [3] is 700 A.U. and 480 A.U.

Consider GFALTNFGYFEPG [CaPep3A], for which the “Hill Slope” value in the assay with CaSte2 is given as 2.0 ± 0.1; in assay [1], 0.74 ± 0.08.

Regarding GFRATNFGYFEPG [CaPep4A], the “Hill Slope” value turned out to be 1.3 ± 0.1 with CaSte2 and 2.4 ± 0.4 in assay [1].

As for GFRLANFGYFEPG [CaPep5A], in the assay on CaSte2, the “Hill Slope” value is recorded as 2.7 ± 0.7 and the “response of CaSte2” value is “practically non-responsive”.

On to GFRLTAFGYFEPG [CaPep6A], for which the figures for the “Hill Slope” value (with CaSte2; in assay [1]) were 4.4 ± 0.4 and 1.7 ± 0.2, respectively.

For GFRLTNAGYFEPG [7A], in the assay on CaSte2, the “Hill Slope” value stood at 1.4 ± 0.1 and the “response of CaSte2” value is recorded as “practically non-responsive”. Also, the “Hill Slope” value in assay [1] worked out at 2.2 ± 0.4.

For the substance GFRLTNFAYFEPG [CaPep8A], the “Hill Slope” value came out at 1.3 ± 0.3 in the assay on CaSte2 and 1.0 ± 0.1 in assay [1].

For the substance GFRLTNFGAAEPG [9A10A], in the assay on CaSte2, the “Hill Slope” value is recorded as 0.99 ± 0.04 and the “EC50 compared to the native CaPep” value was “more than two orders of magnitude higher EC50”. The “Hill Slope” value in assay [1] is listed as 1.0 ± 0.1.

Turning to GFRLTNFGAFEPG [CaPep9A], the “Hill Slope” value in the assay on CaSte2 amounted to 1.9 ± 0.1; in assay [1], 1.7 ± 0.2.

With GFRLTNFGYAEPG [CaPep10A], in the assay with CaSte2, the “Hill Slope” value stood at 2.8 ± 0.5 and the “EC50 compared to the native CaPep” value is reported as “more than two orders of magnitude higher EC50”. In addition, the “Hill Slope” value in assay [1] worked out at 2.6 ± 0.13.

As for GFRLTNFGYFAPG [CaPep11A], the “Hill Slope” value in assay [1] was found to be 1.5 ± 0.2.

Regarding GFRLTNFGYFEAA [12A13A], the “Hill Slope” value with CaSte2 was found to be 2.8 ± 0.1; in assay [1], 1.8 ± 0.1. The “EC50 compared to the native CaPep” value with CaSte2 is “more than two orders of magnitude higher EC50”.

With GFRLTNFGYFEAG [12A], in the assay with CaSte2, the “Hill Slope” value amounted to 0.95 ± 0.04 and the “EC50 compared to the native CaPep” value is listed as “more than two orders of magnitude higher EC50”. In addition, in assay [1], the “Hill Slope” value was determined as 1.1 ± 0.1.

Take S. cerevisiae pheromone peptide (ScPep): in assay [4], the EC50 (mCherry/OD600) was 2 nM; the Top was 380 A.U. and 390 A.U.

Regarding ScPep1A (peptide), in assay [4], the Top is 320 A.U. and 350 A.U.

Turning to ScPep2A (peptide), the Top in assay [4] is 270 A.U. and 350 A.U.

For ScPep3A (peptide), in assay [4], the Top is 280 A.U. and 370 A.U.

Consider ScPep4A (peptide), for which the Top in assay [4] was 250 A.U. and 340 A.U.

Take ScPep5A (peptide): the Top in assay [4] is 380 A.U. and 340 A.U.

ScPep6A (peptide): the Top in assay [4] is 310 A.U. and 390 A.U.

Consider ScPep7A (peptide), for which the Top in assay [4] is 400 A.U. and 380 A.U.

As for ScPep8A (peptide), the Top in assay [4] is 430 A.U. and 440 A.U.

Turning to ScPep9A (peptide), the Top in assay [4] is 370 A.U. and 440 A.U.

Consider ScPep10A (peptide), for which the Top in assay [4] was 380 A.U. and 420 A.U.

Turning to ScPep11A (peptide), the Top in assay [4] came out at 410 A.U.

On to ScPep12A (peptide), for which the Top in assay [4] is 410 A.U. and 450 A.U.

Regarding ScPep13A (peptide), the Top in assay [4] is 360 A.U. and 490 A.U.

“Scα-Smt3 (α-factor fused to the N-terminus of full-length Smt3, 6x-His-tag at the opposite terminus) (from UniProt Q12306 2-98)” registered an EC50 (mCherry/OD600) in assay [4] of 149 nM.

For “Smt3-Scα (α-factor fused to the C-terminus of full-length Smt3, 6x-His-tag at the opposite terminus) (from UniProt Q12306 1-98)”, the EC50 (mCherry/OD600) in assay [4] amounted to 208 nM.

“Smt3-Scα-Smt3 (two Smt3 fused in tandem with an α-factor linker, N-terminus 6x-His-tag) (from UniProt Q12306 1-98; Q12306 2-98)”: the EC50 (mCherry/OD600) in assay [4] was 1080 nM.

For the substance WAWLQLKPGQPMY [ScPep2A], the “Hill Slope” value on ScSte2 is on record as 3.7 ± 0.2. In assay [2], the Bottom was 5.9 ± 3.0 A.U, the “Hill Slope” value is on record as 1.5 ± 0.1, the LogEC50 is −5.0 ± 0.1 M and the Top came to 350 ± 10 A.U.

As for WHALQLKPGQPMY [ScPep3A], the “Hill Slope” value on ScSte2 came out at 2.5 ± 0.1. In addition, in assay [2], the Bottom was 6.4 ± 2.6 A.U, the “Hill Slope” value came to 0.74 ± 0.05, the LogEC50 is given as −4.6 ± 0.1 M and the Top is 370 ± 20 A.U.

In the case of WHWAQLKPGQPMY [ScPep4A], in assay [2], the Bottom is −1.6 ± 2.9 A.U, the “Hill Slope” value is listed as 0.72 ± 0.04, the LogEC50 is given as −5.4 ± 0.1 M and the Top is 340 ± 10 A.U.

Regarding WHWLALKPGQPMY [ScPep5A], on ScSte2, the “Hill Slope” value amounted to 3.4 ± 0.3. Moreover, in assay [2], the Bottom was 0.52 ± 8.7 A.U, the “Hill Slope” value was 1.2 ± 0.2, the LogEC50 is listed as −6.3 ± 0.1 M and the Top was determined as 340 ± 10 A.U.

WHWLQAKPGQPMY [ScPep6A]: on ScSte2, the “Hill Slope” value is 5.6 ± 0.7. Also, in assay [2], the Bottom was 0.38 ± 5.71 A.U, the “Hill Slope” value amounted to 0.99 ± 0.10, the LogEC50 is reported as −5.5 ± 0.1 M and the Top amounted to 390 ± 10 A.U.

Turning to WHWLQLKPGQPAY [ScPep12A], in assay [2], the Bottom was 2.5 ± 2.9 A.U, the “Hill Slope” value is 1.3 ± 0.1, the LogEC50 is −6.0 ± 0.1 M and the Top was 450 ± 10 A.U.

In assay [5], “synthetic A. fumigatus pheromone peptide (AfuPep)” came in with an EC50, GFP of the sender strain of 4 nM; an EC50, mCherry reporter in yeast of 100 nM; an EC50, mCherry, fine-tuned optimized strain of 40 nM; an EC50, mCherry, strain with natural signaling pathway of 10 nM. In assay [5], the LoD, lycopene readout, yTC590 worked out at 50 nM; the activation fold change, fine-tuned optimized strain was 2900 fold; the activation fold change, strain with natural signaling pathway came out at 19 fold; the fold change of fluorescence readout was determined as 4000 fold. In assay [5], this substance gave a limit of detection (LoD), lycopene readout, yTC527 of 30 nM; a maximal activation, mCherry, fine-tuned optimized strain of 2900 A.U; a maximal activation, mCherry, strain with natural signaling pathway (yMJ194) of 450 A.U.
